Measurements as given in patent US12162861B2, “Dopamine D3 receptor selective antagonists/partial agonists; method of making; and use thereof” (THE UNITED STATES OF AMERICA, AS REPRESENTED BY THE …, priority 2016, dated 2024).
Entries after “also recorded” stand apart in the source; their conditions may differ.

Key:
Long-Evans rats [1] = assay: Reinstatement of drug-seeking induced by oxycodone priming in rats; type: in vivo, rat; conditions: 5-15 mg/kg i.p., oxycodone priming 1 mg/kg i.p.
Experimental: Experiment 3. […] After completion of self-administration training, three additional groups of animals were exposed to the extinction conditions, in which cocaine was replaced by saline, and the cocaine-associated cue-light and tone were turned off. Active lever-pressing led only to saline infusion. Daily 3 hr extinction sessions for each rat continued until lever presses ≤10 times per 3 h session for at least 3 consecutive days. […] Fifteen min after injection, they were given a priming injection of oxycodone (1 mg/kg i.p.) and immediately put into the self-administration chambers. Animals were allowed to press levers for another extinction session and their responses on the levers were recorded.

Long-Evans rats [2] = assay: Oxycodone-induced conditioned place preference (CPP) in rats; type: in vivo, rat
Experimental: CPP was tested in the place-conditioning apparatus (Med Associates, St Albans, VT) consisting of two side compartments (21×28 cm^2) and a central gray connecting area (21×12.5 cm^2); a sliding door separated each compartment from the connecting area. The two side compartments differed in wall color (black vs white), floor type (net vs grid), and illumination. Each rat was first exposed in the CPP apparatus for 15 minutes (preconditioning) and then followed by oxycodone CPP conditioning. […] Oxycodone CPP procedures consisted of 2 days of oxycodone (3 mg/kg, ip) conditioning in one compartment and 2 days of saline conditioning in another compartment, alternatively (e.g., oxycodone-saline-oxycodone-saline). The compartments paired with oxycodone or saline were counterbalanced. […] After oxycodone injection, animals were immediately confined in the assigned compartments for 40 minutes. To potentiate oxycodone CPP formation, animals received 4 days of oxycodone (3 mg/kg, ip, twice daily at 8:00 and 18:00) treatment at home cages. […] In the (Vehicle+vehicle) group, saline was paired with each compartment. Then 24 hours after the last saline or oxycodone conditioning injection, animals were placed in the same three-chamber CPP apparatus for 15 minutes and the time spent in each compartment was recorded. The CPP score was calculated by the time difference (seconds) that animal spent in drug-paired compartment versus saline-paired compartment.

opiate delta receptor = opiate delta receptor (Homo sapiens, UniProt P41143); assay: Binding to opiate delta receptor
C57BL/6J mice = conditions: listed as (±)-29
Long-Evans rats [3] = assay: Responding during saline substitution (extinction) testing in rats; type: in vivo, rat; conditions: 5 or 15 mg/kg
Text: Experiment 2. […] Following the completion of the self-administration testing, rats were allowed to self-administer oxycodone for another 4 daily sessions. […] Fifteen min after injection, they were placed in the chambers and allowed to lever-press for saline infusion for 3 hr.

Long-Evans rats [4] = assay: Oxycodone self-administration in rats; type: in vivo, rat; conditions: for oxycodone self-administration (oxycodone taking): FR1, 5-25 mg/kg i.p., FIG. 3A
Experimental: MATERIALS AND METHODS: Male Long-Evans rats (Charles-River, Raleigh, N.C.) were used. […] All the experimental procedures were consistent with the “Principles of Laboratory Animal Care” published by National Institutes of Health (NIH publication 86-23, 1996) and were approved by the NIDA Animal Care and Use Committee.
Surgery: Rats (300-350 g) used for oxycodone self-administration were first implanted with an intravenous catheter. They were anaesthetized with pentobarbital (30 mg/kg i.p.) supplemented with chloral hydrate (140 mg/kg, i.p.). A small incision was next made to the right of the midline of the neck and the external jugular vein was externalized and an i.v. catheter, made of microrenathane (Braintree Scientific Inc., Braintree, MA, USA) was inserted with its tip reaching right atrium. The catheter was secured to the vein with silk suture and the other end fed subcutaneously around the back of the neck to exit near the back of the skull. The end was slipped over a bent 24-gauge stainless steel cannula (Plastic One Inc., Roanoke, VA, USA) with a threaded head used to secure a dummy cannula and, during experimentation, an infusion line. The catheter and the guide cannula were then secured to the skull with four stainless steel screws threaded into the skull and dental cement and the wound was sutured.
After surgery, the catheters were flushed daily with a gentamicin-heparin-saline solution (30 IU/ml heparin; ICN Biochemicals, Cleveland, OH, USA) as precaution against catheter clogging and infection. The animals were allowed to recover for at least 5 days before the behavioral training started.
Self-administration apparatus and oxycodone self-administration training: Rats in 3 experimental tests were first trained to self-administer oxycodone. The self-administration apparatus and procedures have been described previously (Xi et al., 2004, 2005). […] This infusion time was also served as a timeout period during which the light-tone cue was kept activated and animal' responses on the active lever were recorded but had no scheduled consequence. […]

rats = assay: Thermal response (hot plate) in rats; type: in vivo, rat; conditions: hot plate 52 °C, FIG. 13
Experimental: Methods: Compound (±)-29 was administered 15 minutes before saline or oxycodone challenge. Tests were performed after the rat was placed inside a transparent circular cage on a hot plate (52±0.2° C.). Licking the hind paw or jumping was considered as a sign of thermal nociception. The rat was then immediately removed from the hot plate and the time latency was recorded.

cannabinoid CB2 receptor = cannabinoid CB2 receptor (Homo sapiens, UniProt P34972); assay: Binding to cannabinoid CB2 receptor
Chain of cannabinoid CB2 receptor (P34972 whole entry): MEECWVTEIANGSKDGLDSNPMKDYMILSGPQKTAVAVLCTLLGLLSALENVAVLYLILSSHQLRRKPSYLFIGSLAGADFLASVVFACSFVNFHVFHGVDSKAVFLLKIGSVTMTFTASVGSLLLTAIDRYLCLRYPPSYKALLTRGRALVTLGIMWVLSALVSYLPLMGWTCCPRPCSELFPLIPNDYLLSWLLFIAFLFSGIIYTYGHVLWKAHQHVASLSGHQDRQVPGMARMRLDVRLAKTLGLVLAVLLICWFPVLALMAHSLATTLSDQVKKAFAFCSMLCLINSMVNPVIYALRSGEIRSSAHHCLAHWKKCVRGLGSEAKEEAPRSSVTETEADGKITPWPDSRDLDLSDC

Chain of opiate delta receptor (P41143 whole entry): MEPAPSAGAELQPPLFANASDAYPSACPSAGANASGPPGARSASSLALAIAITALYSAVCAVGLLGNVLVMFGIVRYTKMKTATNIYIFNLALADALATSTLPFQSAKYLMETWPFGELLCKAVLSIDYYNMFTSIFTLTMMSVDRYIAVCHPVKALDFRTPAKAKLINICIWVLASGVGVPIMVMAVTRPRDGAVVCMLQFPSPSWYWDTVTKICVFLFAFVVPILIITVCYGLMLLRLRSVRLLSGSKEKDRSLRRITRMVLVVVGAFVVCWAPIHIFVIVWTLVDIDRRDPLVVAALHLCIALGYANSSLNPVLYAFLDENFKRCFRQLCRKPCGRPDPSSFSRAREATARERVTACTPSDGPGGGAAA

- CPP produced by compound alone (Long-Evans rats [2]; rats, 15 mg/kg alone): did not produce CPP
- binding to opiate delta receptor (opiate delta receptor): does not bind
- binding to cannabinoid CB2 receptor (cannabinoid CB2 receptor): does not bind
SMILES: CCc1cc(Cl)c(OC)c(N2CCN(CC(O)CCNC(=O)c3cc4ccccc4[nH]3)CC2)c1 (racemic) [Compound 29, N-(4-(4-(3-chloro-5-ethyl-2-methoxyphenyl)piperazin-1-yl)-3-hydroxybutyl)-1H-indole-2-carboxamide]
- oxycodone-induced reinstatement to drug seeking (Long-Evans rats [1]; FIG. 4): blocked oxycodone-induced reinstatement to drug seeking
- oxycodone-induced reinstatement to drug seeking (Long-Evans rats [1]; FIG. 4, listed as (±)-29): attenuating effects
- oxycodone induced CPP, posthoc comparison to (Vehicle+oxycodone) group (Long-Evans rats [2]; rats, 15 mg/kg, p<0.05): significant reduction in oxycodone induced CPP
- oxycodone-induced CPP (Long-Evans rats [2]; rats, 5, 15 mg/kg ip, 15 min before each oxycodone injection (3 mg/kg ip), FIG. 10): dose-dependently attenuated oxycodone-induced CPP
- acute oxycodone-induced hyperactivity (C57BL/6J mice; mice, 5, 15 mg/kg ip 15 min before oxycodone 4 mg/kg, day 2): dose-dependently inhibited oxycodone-induced hyperactivity
- oxycodone prime-induced locomotor sensitization after 2 days of withdrawal (C57BL/6J mice; mice, day 9, oxycodone 4 mg/kg challenge without pretreatment): long-lasting inhibition in oxycodone-induced increases in locomotion
- oxycodone seeking during extinction testing (Long-Evans rats [3]): inhibited oxycodone seeking during extinction testing
- oxycodone self-administration (oxycodone taking) (Long-Evans rats [4]): attenuated self-administration at 15 and 25 mg/kg
- oxycodone self-administration (oxycodone taking) (Long-Evans rats [4]; listed as (±)-29): attenuating effects
- acquisition of oxycodone self-administration, number of infusions (Long-Evans rats [4]; pretreatment 5-15 mg/kg i.p., oxycodone 0.05 mg/kg/infusion, effect at 15 mg/kg): significantly lower number of infusions of oxycodone
- thermal response after oxycodone challenge (oxycodone induced analgesia) (rats; 30 minutes following oxycodone 2 mg/kg i.p.): no significant effects on animal's thermal response; also recorded: no effect on oxycodone induced analgesia
- thermal response after saline challenge (analgesic effect of its own) (rats; 30 minutes following saline 1 ml/kg i.p.): no significant effects on animal's thermal response; also recorded: no analgesic effects of its own
